This note sets out measurements from patent US20070041934A1, “Dendrimer based compositions and methods of using the same” (priority 2005, published 2007).

One data set deals with KB cells. Nature of the data set: Cell growth inhibition (XTT assay / total cell protein). Format: cell-based, human. The procedure: Cell culture and treatment. KB cells were maintained in folate-free medium containing 10% serum (See, e.g., Quintana et al, Pharm. Res. 19, 1310 (2002)) to provide extracellular FA similar to that found in human serum. Cells were plated in 12-well plates for uptake studies, in 24-well plates for cell growth analysis, and in 96-well plates for XTT assay. Cells were rinsed with FA-free medium containing dialyzed serum and incubated at 37° C. with dendrimer-drug conjugates for the indicated time periods and concentrations. KB cells were also maintained in RPMI medium containing 2 μM FA to obtain cells which express low FAR.
Evaluation of dendrimer cytotoxicity. Cell growth was determined by assay of the total protein in lysates of treated cells using a bicinchoninic acid reagent (PIERCE, and by XTT assay, using a kit from Roche.
Because the binding of the conjugate to KB cells reaches maximal uptake within 1 h (Quintana et al, 2002. Pharmaceutical Research 19: 1310-1316.), the effect of the G5-FI-FA-MTX on cell growth was initially tested by pre-incubation of cells with the conjugate for 1 h, followed by incubation in a drug-free medium for 5 d. […] When the cells were pre-incubated with dendrimers for 4 h, there was a modest decrease of about 10% in cell growth as determined by XTT assay. The cytotoxicity measurements were therefore done by incubation with the dendrimer for a minimum of 24 h, a pre-incubation time period shown to induce significant cytotoxicity.
Time course and dose dependent inhibition of cell growth. Previous studies have shown that MTX-induced cytotoxicity is detectable in vitro only if the medium is completely deprived of FA (See, e.g., Sobrero & Bertino, Int. J. Cell Cloning 4, 51 (1986)). The effect of the trifunctional dendrimers on cell growth was tested in cells incubated in a FA-deficient medium. Cells were treated with 300 nM conjugates (equivalent of 1500 nM MTX) or 1500 nM free MTX for 1-4 days, and cell proliferation was determined by estimation of cellular protein content. Cells were treated for 2 days with different concentrations of the conjugates or free MTX (the conjugate concentration is given as MTX equivalents, with 5 MTX per dendrimer molecule). KB cells which express high and low FAR were incubated with 30 nM of the dendrimers for 1 hr at 37° C., rinsed, and the fluorescence of cells was determined by flow cytometric analysis (See. e.g., FIG. 21, left panel). Pre-incubation with 50 μM free FA for 30 min totally prevents cellular binding and uptake of the polymer conjugates (See. e.g., FIG. 21, left panel).
The inhibition of cell growth induced by the conjugates was also tested by XTT assay which is based on the conversion of XTT to formazan by the active mitochondria of live cells (See, e.g., Roehm et al, J Immunol Methods 142, 257 (1991)).
As growth inhibition induced by free MTX was higher than with the equimolar concentrations of MTX in the G5-FITC-FA-MTX below 1 μM (See, e.g., FIG. 21), it was tested whether the FA moiety in the G5-FITC-FA-MTX may be rescuing the cells from MTX-induced cytotoxicity. As the G5-FITC-FA-MTX preparation contained equimolar concentrations of MTX and FA, the effect of similar concentrations of free MTX and free FA on the inhibition of cell growth was determined. […] The cells were rinsed to remove the drugs and incubated with fresh medium for an additional 6 d, and total cell protein was determined. […]

The conditions of data set [1]: mouse, in vivo.
Procedure: (§1) Delivery of targeted nanoparticle therapeutic. Twice weekly, SCID mice with s.c. KB xenografts, starting on day 4 after tumor implantation, received via the tail vein an injection of either targeted or nontargeted conjugate containing methotrexate, a conjugate without methotrexate, free methotrexate, or saline as a control. The compounds were delivered in a 0.2 mL volume of saline per 20 g of mouse. The single dose of methotrexate delivered each time equaled 0.33 mg/kg. The higher doses of 1.67 and 3.33 mg/kg free methotrexate were also tested. The conjugates were delivered at equimolar concentration of methotrexate calculated based on the number of methotrexate molecules present in a nanoparticle. The conjugate without methotrexate was delivered at equimolar concentration of dendrimer. In the initial trial, six groups of mice with five mice in each group received up to 15 injections. In the follow-up trial, mice received up to 28 injections dependent on their survival. The body weights of the mice were monitored throughout the experiment as an indication of adverse effects of the drug. Histopathology of multiple organs was done at the termination of each trial and each time mouse had to be euthanized due to toxic effects or tumor burden. Tissues from lung, heart, liver, pancreas, spleen, kidney, and tumor were analyzed.
Toxicity of dendrimer conjugates. […]
The subject of a further data set is s.c. human KB xenografts. As to the kind of experiment: Targeted drug delivery to tumor, tumor growth and survival. Format: in vivo, SCID mice. The conditions noted are these: for effect on tumor growth: first trial. The procedure: Delivery of targeted nanoparticle therapeutic.
Statistical methods. Means, SD, and SE of the data were calculated. Differences between the experimental groups and the control groups were tested using Student's-Newman-Keuls' test and Ps<0.05 were considered significant.
Targeted drug delivery to tumor cells through the folate receptor. The efficacy of different doses of conjugates was tested on SCID CB-17 mice bearing s.c. human KB xenografts and was compared with equivalent and higher doses of free methotrexate. Mice were maintained on the folic acid-deficient diet for 3 weeks before injection of the KB tumor cells to achieve circulating levels of folic acid that approach those in human serum and to prevent down-regulation of folate receptors on tumor xenografts (See, Mathias et al., J Nucl Med 29, 1579 (1998)). Six groups of SCID mice with five mice in each group were injected s.c. on one flank with 5×10^6 KB cells in 0.2 mL PBS suspension. The highest total dose of G5-FI-FA-MTX therapeutic used equals 55.0 mg/kg and is equivalent to a 5.0 mg/kg total cumulative dose of free methotrexate (FIG. 29). The therapeutic dose of the conjugate was compared with three cumulative doses of free methotrexate equivalent to 33.3, 21.7, and 5.0 mg/kg accumulated in 10 to 15 injections based on mouse survival. Saline and the conjugate without methotrexate (G5-FI-FA) were used as controls.

Data set [2] in a line: Toxicity of dendrimer conjugates and free methotrexate in mice. The note with it: cumulative doses 33.3 and 21.7 mg/kg.
Procedure: as §1
Toxicity of dendrimer conjugates. […]

With `Nc1nc2ncc(CNc3ccc(C(=O)N[C@@H](CCC(=O)O)C(=O)O)cc3)nc2c(=O)[nH]1` [FA, folic acid], the “reversal of MTX-induced growth-arrest by free FA” value with KB cells (150 nM FA with 150 nM MTX, 24 h, then 6 d fresh medium, total cell protein) is on record as “almost completely reversed the growth-arrest”. Besides, in the data set on KB cells (50 μM free FA with conjugate or free MTX 24 h, then 5 days, XTT), the “increase of cell growth above that of the control cells” value is listed as 20%.
Regarding `CN(Cc1cnc2nc(N)nc(N)c2n1)c1ccc(C(=O)N[C@@H](CCC(=O)O)C(=O)O)cc1` [MTX, methotrexate], the “histopathology of the liver” value in data set [1] is “advanced liver lesions, collections of inflammatory cells, and periportal inflammation”. Besides, the “effect on tumor growth” value is reported as “no effect on tumor growth” in the data set on s.c. human KB xenografts (cumulative dose equivalent to 5.0 mg/kg methotrexate (or equimolar dendrimer)); “affecting tumor growth” with s.c. human KB xenografts (cumulative doses 33.3 and 21.7 mg/kg). For the same compound, the “day of trial by which all mice died” value in the data set on s.c. human KB xenografts (second 99-day trial) was no more than 66 days. For the same compound, in the data set on s.c. human KB xenografts (second 99-day trial), the “survivors at the termination of the trial” value is reported as “no mice surviving”. Moreover, the “growth inhibition by XTT assay” value in the data set with KB cells (1, 2 or 3 days) is recorded as “time-dependent cytotoxicity”. Moreover, the “inhibition of cell growth” value in the data set with KB cells (FA-deficient medium, time course and dose dependence (FIGS. 21 and 22)) is “inhibited cell growth in a time- and dose-dependent fashion”. Further, in the data set on KB cells (below 1 μM), the “growth inhibition compared with equimolar MTX in G5-FITC-FA-MTX” value is given as “higher”. The “day of trial by which dose became lethal” value in data set [2] was 32 to 36 days.
